In the test the test system is MV-4-11 cells. Nature of the test: Gene expression microarray analysis (Affymetrix PrimeView) and GSEA. Further details: RFU PODN (11730768_x_at) / Fold change /veh PODN (11730768_x_at) / RFU LINC00158 (11744669_a_at) / Fold change /veh LINC00158 (11744669_a_at) / RFU DUSP10 (11751237_a_at) / Fold change /veh DUSP10 (11751237_a_at) / RFU ID3 (11757404_x_at) / Fold change /veh ID3 (11757404_x_at) / RFU PLEKHG5 (11737974_s_at) / Fold change /veh PLEKHG5 (11737974_s_at) / RFU LRRC4B (11730491_at) / Fold change /veh LRRC4B (11730491_at) / RFU GIMAP4 (11747438_a_at) / Fold change /veh GIMAP4 (11747438_a_at) / RFU KRT8 (11758183_x_at) / Fold change /veh KRT8 (11758183_x_at) / RFU CNN1 (11734310_a_at) / Fold change /veh CNN1 (11734310_a_at) / RFU VPS37D (11726825_at) / Fold change /veh VPS37D (11726825_at) / RFU C10orf10 (11716522_x_at) / Fold change /veh C10orf10 (11716522_x_at) / RFU KIR2DL2 /// KIR2DL4 /// KIR2DL5A /// KIR2DL5B /// KIR2DS1 /// KIR2DS2 /// KIR2DS3 /// KIR2DS4 /// KIR3DL3 /// KIR3DL3 /// KIR3DS1 (11738374_at) / Fold change /veh KIR2DL2 /// KIR2DL4 /// KIR2DL5A /// KIR2DL5B /// KIR2DS1 /// KIR2DS2 /// KIR2DS3 /// KIR2DS4 /// KIR3DL3 /// KIR3DL3 /// KIR3DS1 (11738374_at) / RFU C1QL1 (11718748_at) / Fold change /veh C1QL1 (11718748_at) / RFU TMPRSS4 (11747572_a_at) / Fold change /veh TMPRSS4 (11747572_a_at) / RFU HAMP (11756126_x_at) / Fold change /veh HAMP (11756126_x_at) / RFU RNFT2 (11725882_a_at) / Fold change /veh RNFT2 (11725882_a_at) / RFU NR4A2 (11747474_a_at) / Fold change /veh NR4A2 (11747474_a_at) / RFU ABCC12 (11746883_a_at) / Fold change /veh ABCC12 (11746883_a_at) / RFU TMEM136 (11760407_x_at) / Fold change /veh TMEM136 (11760407_x_at) / RFU CLDN22 /// WWC2 (11732394_at) / Fold change /veh CLDN22 /// WWC2 (11732394_at) / RFU HLA-DPB1 (11760878_x_at) / Fold change /veh HLA-DPB1 (11760878_x_at) / RFU SPINT1 (11716480_a_at) / Fold change /veh SPINT1 (11716480_a_at) / RFU GAP43 (11754022_s_at) / Fold change /veh GAP43 (11754022_s_at) / RFU A4GNT (11735810_at) / Fold change /veh A4GNT (11735810_at) / RFU PRB3 (11715151_x_at) / Fold change /veh PRB3 (11715151_x_at) / RFU TUBB4B (11761932_at) / Fold change /veh TUBB4B (11761932_at) / RFU CAPN14 (11732068_a_at) / Fold change /veh CAPN14 (11732068_a_at) / RFU TMCC2 (11721928_a_at) / Fold change /veh TMCC2 (11721928_a_at) / RFU IRGQ (11745062_a_at) / Fold change /veh IRGQ (11745062_a_at) / RFU FAM174B (11720279_a_at) / Fold change /veh FAM174B (11720279_a_at) / RFU TMPRSS4 (11748680_a_at) / Fold change /veh TMPRSS4 (11748680_a_at) / RFU FAM212B (11763350_a_at) / Fold change /veh FAM212B (11763350_a_at) / RFU PLEKHG5 (11743358_a_at) / Fold change /veh PLEKHG5 (11743358_a_at) / RFU ZSCAN30 (11745921_a_at) / Fold change /veh ZSCAN30 (11745921_a_at) / RFU CMKLR1 (11741424_a_at) / Fold change /veh CMKLR1 (11741424_a_at) / RFU LOC101060620 /// MAPK8IP1 (11723275_at) / Fold change /veh LOC101060620 /// MAPK8IP1 (11723275_at) / RFU SPTSSB (11747773_x_at) / Fold change /veh SPTSSB (11747773_x_at) / RFU PRSS12 (11739890_at) / Fold change /veh PRSS12 (11739890_at) / RFU BIN1 (11741810_x_at) / Fold change /veh BIN1 (11741810_x_at) / RFU WNT11 (11732464_a_at) / Fold change /veh WNT11 (11732464_a_at) / RFU C10orf10 (11716521_a_at) / Fold change /veh C10orf10 (11716521_a_at) / RFU C5orf56 (11738089_at) / Fold change /veh C5orf56 (11738089_at) / RFU CYB561 (11721691_x_at) / Fold change /veh CYB561 (11721691_x_at) / RFU ANKRD19P (11752326_a_at) / Fold change /veh ANKRD19P (11752326_a_at) / RFU OR2T12 /// OR2T33 /// OR2T8 (11738714_s_at) / Fold change /veh OR2T12 /// OR2T33 /// OR2T8 (11738714_s_at) / RFU VCAN (11748164_a_at) / Fold change /veh VCAN (11748164_a_at) / RFU JSRP1 (11732532_at) / Fold change /veh JSRP1 (11732532_at) / RFU KRTAP10-11 (11738290_x_at) / Fold change /veh KRTAP10-11 (11738290_x_at) / RFU MYO3A (11730013_a_at) / Fold change /veh MYO3A (11730013_a_at) / RFU EBF3 (11725865_a_at) / Fold change /veh EBF3 (11725865_a_at) / RFU CAMK2N1 (11719241_x_at) / Fold change /veh CAMK2N1 (11719241_x_at) / RFU C5orf56 (11738088_a_at) / Fold change /veh C5orf56 (11738088_a_at) / RFU OLFML3 (11715873_a_at) / Fold change /veh OLFML3 (11715873_a_at) / RFU LOC100653217 /// NTM (11731650_a_at) / Fold change /veh LOC100653217 /// NTM (11731650_a_at) / RFU MAPK11 (11762145_a_at) / Fold change /veh MAPK11 (11762145_a_at) / RFU FIZ1 (11724087_x_at) / Fold change /veh FIZ1 (11724087_x_at) / RFU OASL (11726364_x_at) / Fold change /veh OASL (11726364_x_at) / RFU SOX15 (11748057_x_at) / Fold change /veh SOX15 (11748057_x_at) / RFU CD79A (11719716_a_at) / Fold change /veh CD79A (11719716_a_at) / RFU HIST1H1D (11736915_at) / Fold change /veh HIST1H1D (11736915_at) / RFU CASKIN2 (11723855_a_at) / Fold change /veh CASKIN2 (11723855_a_at) / RFU LOC730098 (11760151_x_at) / Fold change /veh LOC730098 (11760151_x_at) / RFU OR4N2 (11742367_at) / Fold change /veh OR4N2 (11742367_at) / RFU PRRT2 (11749266_a_at) / Fold change /veh PRRT2 (11749266_a_at) / RFU SNX32 (11753110_a_at) / Fold change /veh SNX32 (11753110_a_at) / RFU CDHR5 (11726645_a_at) / Fold change /veh CDHR5 (11726645_a_at) / RFU RCAN1 (11760418_a_at) / Fold change /veh RCAN1 (11760418_a_at) / RFU FAM167A (11723789_a_at) / Fold change /veh FAM167A (11723789_a_at) / RFU FAM26E (11764081_at) / Fold change /veh FAM26E (11764081_at) / RFU ISYNA1 (11749810_s_at) / Fold change /veh ISYNA1 (11749810_s_at) / RFU ACY1 (11761880_at) / Fold change /veh ACY1 (11761880_at) / RFU 11764098_at / Fold change /veh 11764098_at / RFU SAMD14 (11745864_x_at) / Fold change /veh SAMD14 (11745864_x_at) / RFU NPB (11741838_a_at) / Fold change /veh NPB (11741838_a_at) / RFU TMPRSS6 (11731388_a_at) / Fold change /veh TMPRSS6 (11731388_a_at) / RFU KRTAP10-2 (11738614_at) / Fold change /veh KRTAP10-2 (11738614_at) / RFU ARHGAP8 /// PRR5-ARHGAP8 (11727945_x_at) / Fold change /veh ARHGAP8 /// PRR5-ARHGAP8 (11727945_x_at) / RFU KRTAP5-7 /// NADSYN1 (11734609_at) / Fold change /veh KRTAP5-7 /// NADSYN1 (11734609_at) / RFU RASL12 (11751679_a_at) / Fold change /veh RASL12 (11751679_a_at) / RFU CDKN2B (11736163_a_at) / Fold change /veh CDKN2B (11736163_a_at) / RFU PRF1 (11729649_at) / Fold change /veh PRF1 (11729649_at) / RFU, ZNF638 /// ZNF638-IT1 / Fold change vs veh, ZNF638 /// ZNF638-IT1 / RFU, PANK3 / Fold change vs veh, PANK3 / RFU, SH3YL1 / Fold change vs veh, SH3YL1 / RFU, ZEB2 / Fold change vs veh, ZEB2 / RFU, NRIP1 / Fold change vs veh, NRIP1 / RFU, PTTG1IP / Fold change vs veh, PTTG1IP / RFU, CAPN2 / Fold change vs veh, CAPN2 / RFU, MED14 / Fold change vs veh, MED14 / RFU, SNORA58 / Fold change vs veh, SNORA58 / RFU, C1orf63 / Fold change vs veh, C1orf63 / RFU, LRRFIP1 / Fold change vs veh, LRRFIP1 / RFU, NDUFAF7 / Fold change vs veh, NDUFAF7 / RFU, SLC12A2 / Fold change vs veh, SLC12A2 / RFU, IBTK / Fold change vs veh, IBTK / RFU, ESF1 / Fold change vs veh, ESF1 / Fold change vs veh, TMEM50B / RFU, TAOK1 / Fold change vs veh, TAOK1 / RFU, ACBD3 / Fold change vs veh, ACBD3 / RFU, TMA16 / Fold change vs veh, TMA16 / RFU, RWDD3 / Fold change vs veh, RWDD3 / RFU, BCAT1 / Fold change vs veh, BCAT1 / RFU, EDEM3 / Fold change vs veh, EDEM3 / RFU, TMEM33 / Fold change vs veh, TMEM33 / RFU, WDR75 / Fold change vs veh, WDR75 / RFU, AHCTF1 / Fold change vs veh, AHCTF1 / RFU, TFRC / Fold change vs veh, TFRC / RFU, ZDHHC17 / Fold change vs veh, ZDHHC17 / RFU, NOM1 / Fold change vs veh, NOM1 / RFU, ARL8B / Fold change vs veh, ARL8B / RFU, ZBTB11 / Fold change vs veh, ZBTB11 / RFU, TAMM41 / Fold change vs veh, TAMM41 / RFU, KIAA1704 /// LOC100996395 / Fold change vs veh, KIAA1704 /// LOC100996395 / RFU, ING1 / Fold change vs veh, ING1 / RFU, TRMT61B / Fold change vs veh, TRMT61B / RFU, FUBP3 / Fold change vs veh, FUBP3 / RFU, TP53 / Fold change vs veh, TP53 / RFU, TNKS2 / Fold change vs veh, TNKS2 / RFU, ZFP14 / Fold change vs veh, ZFP14 / RFU, ACTR2 / Fold change vs veh, ACTR2 / RFU, PPP3R1 / Fold change vs veh, PPP3R1 / RFU, PIK3R1 / Fold change vs veh, PIK3R1 / RFU, HNRNPA1 / Fold change vs veh, HNRNPA1 / RFU, RNF170 / Fold change vs veh, RNF170 / RFU, ZNF28 / Fold change vs veh, ZNF28 / RFU, RNGTT / Fold change vs veh, RNGTT / RFU, OGT / Fold change vs veh, OGT / RFU, BRD1 / Fold change vs veh, BRD1 / RFU, MARS / Fold change vs veh, MARS / RFU, ZNF655 / Fold change vs veh, ZNF655 / RFU, FAHD1 / Fold change vs veh, FAHD1 / RFU, BDP1 / Fold change vs veh, BDP1 / RFU, LRRCC1 / Fold change vs veh, LRRCC1 / RFU, ARID1A / Fold change vs veh, ARID1A / RFU, ZNF146 / Fold change vs veh, ZNF146 / RFU, ZNF330 / Fold change vs veh, ZNF330 / RFU, GPN3 / Fold change vs veh, GPN3 / RFU, C9orf123 / Fold change vs veh, C9orf123 / RFU, N4BP2L2 / Fold change vs veh, N4BP2L2 / RFU, ARFIP1 / Fold change vs veh, ARFIP1 / RFU, FAM179B / Fold change vs veh, FAM179B / RFU, BCL10 / Fold change vs veh, BCL10 / RFU, UHRF1BP1L / Fold change vs veh, UHRF1BP1L / RFU, BET1 / Fold change vs veh, BET1 / RFU, CNOT2 / Fold change vs veh, CNOT2 / RFU, ZNF268 / Fold change vs veh, ZNF268 / Fold change vs veh, ZNF507 / RFU, DGCR2 / Fold change vs veh, DGCR2 / RFU, WDSUB1 / Fold change vs veh, WDSUB1 / Fold change vs veh, HSP90B1 /// MIR3652 / RFU, ADSS / Fold change vs veh, ADSS / RFU, GK / Fold change vs veh, GK / RFU, ZNF148 / Fold change vs veh, ZNF148 / RFU, TAF9 / Fold change vs veh, TAF9 / RFU, SLC1A5 / Fold change vs veh, SLC1A5 / RFU, SLMO2 / Fold change vs veh, SLMO2 / RFU, ABCC4 / Fold change vs veh, ABCC4 / RFU, LOC101060439 /// RAP1B / Fold change vs veh, LOC101060439 /// RAP1B / RFU, RFX7 / Fold change vs veh, RFX7 / RFU, GTPBP10 / Fold change vs veh, GTPBP10 / RFU, CNEP1R1 / Fold change vs veh, CNEP1R1 / RFU, BIVM-ERCC5 /// ERCC5 / Fold change vs veh, BIVM-ERCC5 /// ERCC5 / RFU, ILF3 / Fold change vs veh, ILF3 / RFU 11762660_at / Fold change /veh 11762660_at / RFU VCAN (11757783_s_at) / Fold change /veh VCAN (11757783_s_at) / RFU DDX43 (11728927_at) / Fold change /veh DDX43 (11728927_at) / RFU KRT8 (11758188_x_at) / Fold change /veh KRT8 (11758188_x_at) / RFU NKD1 (11759106_at) / Fold change /veh NKD1 (11759106_at) / RFU SRD5A1 (11742802_a_at) / Fold change /veh SRD5A1 (11742802_a_at) / RFU TPSAB1 /// TPSB2 (11721975_s_at) / Fold change /veh TPSAB1 /// TPSB2 (11721975_s_at) / RFU GSTM3 (11746129_a_at) / Fold change /veh GSTM3 (11746129_a_at) / RFU IL23R (11737362_x_at) / Fold change /veh IL23R (11737362_x_at) / RFU TMEM51 (11727254_a_at) / Fold change /veh TMEM51 (11727254_a_at) / RFU PIWIL2 (11732686_x_at) / Fold change /veh PIWIL2 (11732686_x_at) / RFU ORM1 (11744905_x_at) / Fold change /veh ORM1 (11744905_x_at) / RFU CCDC152 (11743942_at) / Fold change /veh CCDC152 (11743942_at) / RFU ECM1 (11717891_a_at) / Fold change /veh ECM1 (11717891_a_at) / RFU IL23R (11748794_a_at) / Fold change /veh IL23R (11748794_a_at) / RFU TNFAIP8L3 (11732012_x_at) / Fold change /veh TNFAIP8L3 (11732012_x_at) / RFU MBOAT4 (11741988_at) / Fold change /veh MBOAT4 (11741988_at) / RFU 11764193_at / Fold change /veh 11764193_at / RFU TMEM53 (11763286_at) / Fold change /veh TMEM53 (11763286_at) / RFU MAGEB2 (11727129_at) / Fold change /veh MAGEB2 (11727129_at) / RFU TMEM200A (11744735_a_at) / Fold change /veh TMEM200A (11744735_a_at) / RFU CCDC152 (11751479_a_at) / Fold change /veh CCDC152 (11751479_a_at) / RFU FAM211A (11726209_a_at) / Fold change /veh FAM211A (11726209_a_at) / RFU RGS16 (11746705_a_at) / Fold change /veh RGS16 (11746705_a_at) / RFU VCAN (11755009_s_at) / Fold change /veh VCAN (11755009_s_at) / RFU RHOB (11743442_s_at) / Fold change /veh RHOB (11743442_s_at) / RFU RGS16 (11720943_a_at) / Fold change /veh RGS16 (11720943_a_at) / RFU RGS16 (11720944_at) / Fold change /veh RGS16 (11720944_at) / RFU, VPS4B / Fold change vs veh, VPS4B / RFU, CREB1 / Fold change vs veh, CREB1 / RFU, DNAJC13 / Fold change vs veh, DNAJC13 / RFU, GNAQ / Fold change vs veh, GNAQ / RFU, CDK5R1 / Fold change vs veh, CDK5R1 / RFU, ZRANB3 / Fold change vs veh, ZRANB3 / RFU, CUL4A / Fold change vs veh, CUL4A / RFU, CCNY / Fold change vs veh, CCNY / RFU, UFL1 / Fold change vs veh, UFL1 / RFU, COG3 / Fold change vs veh, COG3 / RFU, DIAPH2 / Fold change vs veh, DIAPH2 / RFU, SKA2 / Fold change vs veh, SKA2 / RFU, AFF3 / Fold change vs veh, AFF3 / RFU, LMF1 / Fold change vs veh, LMF1 / RFU, IPO11 / Fold change vs veh, IPO11 / RFU, DFFB / Fold change vs veh, DFFB / RFU, FOXP1 / Fold change vs veh, FOXP1 / RFU, CARD8 / Fold change vs veh, CARD8 / RFU, STRN3 / Fold change vs veh, STRN3 / RFU, ADK / Fold change vs veh, ADK / RFU, RASSF2 / Fold change vs veh, RASSF2 / RFU, WIPF1 / Fold change vs veh, WIPF1 / RFU, LARP1B / Fold change vs veh, LARP1B / RFU, RASA1 / Fold change vs veh, RASA1 / RFU, RB1 / Fold change vs veh, RB1 / RFU, PPFIA1 / Fold change vs veh, PPFIA1 / RFU, MAT2A / Fold change vs veh, MAT2A / RFU, CCT5 / Fold change vs veh, CCT5 / RFU, WDR92 / Fold change vs veh, WDR92 / RFU, CUX1 / Fold change vs veh, CUX1 / RFU, TTC7A / Fold change vs veh, TTC7A / RFU, TMEM135 / Fold change vs veh, TMEM135 / RFU, DEPTOR / Fold change vs veh, DEPTOR / RFU, CPM / Fold change vs veh, CPM / RFU, DNAJB6 / Fold change vs veh, DNAJB6 / RFU, CACNA2D3 / Fold change vs veh, CACNA2D3 / RFU, DTX4 / Fold change vs veh, DTX4 / RFU, TFCP2 / Fold change vs veh, TFCP2 / RFU, GMCL1 /// GMCL1P1 / Fold change vs veh, GMCL1 /// GMCL1P1 / RFU, AEBP2 / Fold change vs veh, AEBP2 / RFU, SNHG1 /// SNORD22 /// SNORD25 /// SNORD26 /// SNORD27 /// SNORD28 /// SNORD29 /// SNORD31 / Fold change vs veh, SNHG1 /// SNORD22 /// SNORD25 /// SNORD26 /// SNORD27 /// SNORD28 /// SNORD29 /// SNORD31 / Fold change (Aza/veh), C12orf56 (ProbeSet 11735607_a_at) / Fold change (ACY-1035/veh), C12orf56 (ProbeSet 11735607_a_at) / Fold change (Aza/veh), FGFR1OP (ProbeSet 11751329_s_at) / Fold change (ACY-1035/veh), FGFR1OP (ProbeSet 11751329_s_at) / Fold change (Aza/veh), VPS36 (ProbeSet 11739960_a_at) / Fold change (ACY-1035/veh), VPS36 (ProbeSet 11739960_a_at) / RFU SYPL1 (11715823_x_at) / Fold change /veh SYPL1 (11715823_x_at) / RFU IGFBP7 (11715501_s_at) / Fold change /veh IGFBP7 (11715501_s_at) / RFU REEP3 (11722064_at) / Fold change /veh REEP3 (11722064_at) / RFU IGLL1 (11728026_x_at) / Fold change /veh IGLL1 (11728026_x_at): dose or concentration left out as unconfirmed. Type of test: cell-based, human. Particulars: ProbeSet 11731610_x_at; LIST B.

The structures appear in SMILES notation.

Regarding `Nc1ccc(-c2cccs2)cc1NC(=O)c1ccc2c(c1)cc(C1CC1)n2CCN1CCOCC1` [ACY-1035], the “Fold change vs veh, KIAA1704 /// LOC100996395” value is 0.91.

The values above are taken from paper PMC5218480 (PLoS ONE, 2017).
